Assay results: the NIST ThermoML archive (doi:10.1016/j.tca.2012.04.030)
± gives the expanded uncertainty stated by the source.

Columns and labels:
[1] = an = ratio of the nth substance listed; settings: for surface tension liquid-gas: Ring tensiometer; for viscosity / mass density: 101 kPa, Liquid; for viscosity: Concentric cylinders viscometry; for mass density: Vibrating tube method
[2] = refractive index (Na D-line) (dimensionless); an = ratio of the nth substance listed; settings: 101 kPa, Liquid, Standard Abbe refractometry

O=C(CO)[C@@H](O)[C@H](O)[C@H](O)CO [D-fructose] + C[N+](C)(C)CCO.[Cl-]
surface tension liquid-gas ([1]; 298.15 K, a2 = 1): 70.4 ± 1.1 mN/m
surface tension liquid-gas ([1]; 298.15 K, a2 = 1.5): 73.6 ± 1.2 mN/m
surface tension liquid-gas ([1]; 298.15 K, a2 = 2): 74 ± 1.2 mN/m
surface tension liquid-gas ([1]; 298.15 K, a2 = 2.5): 75 ± 1.2 mN/m
viscosity ([1]; 298.15 K, a2 = 1): 14347 ± 1800 mPa·s
viscosity ([1]; 298.15 K, a2 = 1.5): 12772 ± 1600 mPa·s
viscosity ([1]; 298.15 K, a2 = 2): 11733 ± 1400 mPa·s
viscosity ([1]; 298.15 K, a2 = 2.5): 17646 ± 2200 mPa·s
mass density ([1]; 298.15 K, a2 = 1): 1337 ± 1.6 kg/m3
mass density ([1]; 298.15 K, a2 = 1.5): 1303.6 ± 1.5 kg/m3
mass density ([1]; 298.15 K, a2 = 2): 1277.9 ± 1.5 kg/m3
mass density ([1]; 298.15 K, a2 = 2.5): 1259 ± 1.4 kg/m3
surface tension liquid-gas ([1]; 308.15 K, a2 = 1): 68 ± 1.1 mN/m
surface tension liquid-gas ([1]; 308.15 K, a2 = 1.5): 71.7 ± 1.2 mN/m
surface tension liquid-gas ([1]; 308.15 K, a2 = 2): 72 ± 1.2 mN/m
surface tension liquid-gas ([1]; 308.15 K, a2 = 2.5): 73 ± 1.2 mN/m
viscosity ([1]; 308.15 K, a2 = 1): 7722.9 ± 920 mPa·s
viscosity ([1]; 308.15 K, a2 = 1.5): 7126.1 ± 840 mPa·s
viscosity ([1]; 308.15 K, a2 = 2): 6137.1 ± 720 mPa·s
viscosity ([1]; 308.15 K, a2 = 2.5): 8556.6 ± 1000 mPa·s
mass density ([1]; 308.15 K, a2 = 1): 1331.6 ± 1.6 kg/m3
mass density ([1]; 308.15 K, a2 = 1.5): 1298.2 ± 1.5 kg/m3
mass density ([1]; 308.15 K, a2 = 2): 1272.5 ± 1.4 kg/m3
mass density ([1]; 308.15 K, a2 = 2.5): 1253.7 ± 1.4 kg/m3
surface tension liquid-gas ([1]; 318.15 K, a2 = 1): 66 ± 1.1 mN/m
surface tension liquid-gas ([1]; 318.15 K, a2 = 1.5): 69.5 ± 1.1 mN/m
surface tension liquid-gas ([1]; 318.15 K, a2 = 2): 70 ± 1.1 mN/m
surface tension liquid-gas ([1]; 318.15 K, a2 = 2.5): 71 ± 1.1 mN/m
viscosity ([1]; 318.15 K, a2 = 1): 4050.5 ± 470 mPa·s
viscosity ([1]; 318.15 K, a2 = 1.5): 3071 ± 350 mPa·s
viscosity ([1]; 318.15 K, a2 = 2): 2457 ± 280 mPa·s
viscosity ([1]; 318.15 K, a2 = 2.5): 4461.7 ± 520 mPa·s
mass density ([1]; 318.15 K, a2 = 1): 1326.2 ± 1.6 kg/m3
mass density ([1]; 318.15 K, a2 = 1.5): 1292.7 ± 1.5 kg/m3
mass density ([1]; 318.15 K, a2 = 2): 1266.9 ± 1.4 kg/m3
mass density ([1]; 318.15 K, a2 = 2.5): 1248.5 ± 1.4 kg/m3
surface tension liquid-gas ([1]; 328.15 K, a2 = 1): 64.4 ± 1.1 mN/m
surface tension liquid-gas ([1]; 328.15 K, a2 = 1.5): 67.3 ± 1.1 mN/m
surface tension liquid-gas ([1]; 328.15 K, a2 = 2): 68 ± 1.1 mN/m
surface tension liquid-gas ([1]; 328.15 K, a2 = 2.5): 69 ± 1.1 mN/m
viscosity ([1]; 328.15 K, a2 = 1): 1415.9 ± 160 mPa·s
viscosity ([1]; 328.15 K, a2 = 1.5): 1271.1 ± 140 mPa·s
viscosity ([1]; 328.15 K, a2 = 2): 1261.7 ± 140 mPa·s
viscosity ([1]; 328.15 K, a2 = 2.5): 1267.5 ± 140 mPa·s
mass density ([1]; 328.15 K, a2 = 1): 1320.7 ± 1.6 kg/m3
mass density ([1]; 328.15 K, a2 = 1.5): 1287.3 ± 1.5 kg/m3
mass density ([1]; 328.15 K, a2 = 2): 1261.2 ± 1.4 kg/m3
mass density ([1]; 328.15 K, a2 = 2.5): 1243.3 ± 1.4 kg/m3
surface tension liquid-gas ([1]; 338.15 K, a2 = 1): 62.6 ± 1 mN/m
surface tension liquid-gas ([1]; 338.15 K, a2 = 1.5): 65.6 ± 1.1 mN/m
surface tension liquid-gas ([1]; 338.15 K, a2 = 2): 66 ± 1.1 mN/m
surface tension liquid-gas ([1]; 338.15 K, a2 = 2.5): 67 ± 1.1 mN/m
viscosity ([1]; 338.15 K, a2 = 1): 806.5 ± 86 mPa·s
viscosity ([1]; 338.15 K, a2 = 1.5): 698.4 ± 74 mPa·s
viscosity ([1]; 338.15 K, a2 = 2): 570.7 ± 61 mPa·s
viscosity ([1]; 338.15 K, a2 = 2.5): 615.4 ± 65 mPa·s
mass density ([1]; 338.15 K, a2 = 1): 1315.2 ± 1.6 kg/m3
mass density ([1]; 338.15 K, a2 = 1.5): 1281.8 ± 1.5 kg/m3
mass density ([1]; 338.15 K, a2 = 2): 1255.5 ± 1.4 kg/m3
mass density ([1]; 338.15 K, a2 = 2.5): 1237.9 ± 1.4 kg/m3
surface tension liquid-gas ([1]; 348.15 K, a2 = 1): 61 ± 1 mN/m
surface tension liquid-gas ([1]; 348.15 K, a2 = 1.5): 63 ± 1 mN/m
surface tension liquid-gas ([1]; 348.15 K, a2 = 2): 64 ± 1 mN/m
surface tension liquid-gas ([1]; 348.15 K, a2 = 2.5): 65 ± 1.1 mN/m
viscosity ([1]; 348.15 K, a2 = 1): 459.7 ± 48 mPa·s
viscosity ([1]; 348.15 K, a2 = 1.5): 353.1 ± 37 mPa·s
viscosity ([1]; 348.15 K, a2 = 2): 285.3 ± 30 mPa·s
viscosity ([1]; 348.15 K, a2 = 2.5): 325.5 ± 34 mPa·s
mass density ([1]; 348.15 K, a2 = 1): 1309.3 ± 1.5 kg/m3
mass density ([1]; 348.15 K, a2 = 1.5): 1275.9 ± 1.5 kg/m3
mass density ([1]; 348.15 K, a2 = 2): 1249.7 ± 1.4 kg/m3
mass density ([1]; 348.15 K, a2 = 2.5): 1232.4 ± 1.3 kg/m3
surface tension liquid-gas ([1]; 358.15 K, a2 = 1): 59 ± 0.96 mN/m
surface tension liquid-gas ([1]; 358.15 K, a2 = 1.5): 61.3 ± 1 mN/m
surface tension liquid-gas ([1]; 358.15 K, a2 = 2): 62 ± 1 mN/m
surface tension liquid-gas ([1]; 358.15 K, a2 = 2.5): 63 ± 1 mN/m
viscosity ([1]; 358.15 K, a2 = 1): 280.6 ± 29 mPa·s
viscosity ([1]; 358.15 K, a2 = 1.5): 236.1 ± 24 mPa·s
viscosity ([1]; 358.15 K, a2 = 2): 129.3 ± 13 mPa·s
viscosity ([1]; 358.15 K, a2 = 2.5): 182.6 ± 19 mPa·s
mass density ([1]; 358.15 K, a2 = 1): 1303.1 ± 1.5 kg/m3
mass density ([1]; 358.15 K, a2 = 1.5): 1269.7 ± 1.4 kg/m3
mass density ([1]; 358.15 K, a2 = 2): 1241.9 ± 1.4 kg/m3
mass density ([1]; 358.15 K, a2 = 2.5): 1226.9 ± 1.3 kg/m3
refractive index ([2]; 298.15 K, a2 = 1): 1.523 ± 0.014
refractive index ([2]; 298.15 K, a2 = 1.5): 1.521 ± 0.014
refractive index ([2]; 298.15 K, a2 = 2): 1.519 ± 0.014
refractive index ([2]; 298.15 K, a2 = 2.5): 1.522 ± 0.014
refractive index ([2]; 308.15 K, a2 = 1): 1.521 ± 0.014
refractive index ([2]; 308.15 K, a2 = 1.5): 1.519 ± 0.014
refractive index ([2]; 308.15 K, a2 = 2): 1.518 ± 0.014
refractive index ([2]; 308.15 K, a2 = 2.5): 1.52 ± 0.014
refractive index ([2]; 318.15 K, a2 = 1): 1.52 ± 0.014
refractive index ([2]; 318.15 K, a2 = 1.5): 1.517 ± 0.014
refractive index ([2]; 318.15 K, a2 = 2): 1.515 ± 0.014
refractive index ([2]; 318.15 K, a2 = 2.5): 1.517 ± 0.014
refractive index ([2]; 328.15 K, a2 = 1): 1.518 ± 0.014
refractive index ([2]; 328.15 K, a2 = 1.5): 1.515 ± 0.014
refractive index ([2]; 328.15 K, a2 = 2): 1.514 ± 0.014
refractive index ([2]; 328.15 K, a2 = 2.5): 1.516 ± 0.014
refractive index ([2]; 338.15 K, a2 = 1): 1.515 ± 0.014
refractive index ([2]; 338.15 K, a2 = 1.5): 1.512 ± 0.014
refractive index ([2]; 338.15 K, a2 = 2): 1.511 ± 0.014
refractive index ([2]; 338.15 K, a2 = 2.5): 1.514 ± 0.014
refractive index ([2]; 348.15 K, a2 = 1): 1.513 ± 0.014
refractive index ([2]; 348.15 K, a2 = 1.5): 1.511 ± 0.014
refractive index ([2]; 348.15 K, a2 = 2): 1.509 ± 0.014
refractive index ([2]; 348.15 K, a2 = 2.5): 1.512 ± 0.014
refractive index ([2]; 358.15 K, a2 = 1): 1.512 ± 0.014
refractive index ([2]; 358.15 K, a2 = 1.5): 1.509 ± 0.014
refractive index ([2]; 358.15 K, a2 = 2): 1.507 ± 0.014
refractive index ([2]; 358.15 K, a2 = 2.5): 1.51 ± 0.014
